Measurements as given in patent US7829560B2, “1,4-disubstituted naphthalenes as inhibitors of P38 MAP kinase” (Arqule, Inc., priority 2004, dated 2010).

How the values were obtained:
[1] = test system: TNFα release from THP-1 cells; experiment: Inhibition of TNFα release from LPS-stimulated THP-1 cells, ELISA; format: cell-based; conditions: Homo sapiens, THP-1, THP-1 cells, read-out: [CELL] THP-1, IC50, TNF ALPHA, ELISA
Procedure, shortened: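 TNFα released into supernatant after 18 h of 10 μg/ml LPS stimulation was quantified by ELISA and IC50 taken as 50% reduction by non-linear regression. THP-1 cells (10^6/ml; medium with 10% FBS, serum-free or 1% HSA) saw compound for 30 min at 37 °C beforehand; final DMSO ≤0.5%.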

p38α = molecular target: T1, p38α (Homo sapiens, UniProt Q16539); experiment: p38 MAP Kinase assay: inhibition of ATF2 phosphorylation, ELISA; format: biochemical; conditions: for IC50: ATF2 phosphorylation, read-out: [ENZ] P38 ALPHA, IC50, ELISA; for inhibition at 10 µM: substrate ATF2, read-out: [ENZ] P38 ALPHA, PCT INH, ELISA (10 uM;ATF2) (Percent)
T1 construct: p38 MAP Kinases are recombinant human full-length proteins with an amino-terminal GST fusion; GST (N); purchased Upstate Biotechnology Inc; host or cells: E. coli
T1 sequence (Q16539 whole entry, the tested form may be a part): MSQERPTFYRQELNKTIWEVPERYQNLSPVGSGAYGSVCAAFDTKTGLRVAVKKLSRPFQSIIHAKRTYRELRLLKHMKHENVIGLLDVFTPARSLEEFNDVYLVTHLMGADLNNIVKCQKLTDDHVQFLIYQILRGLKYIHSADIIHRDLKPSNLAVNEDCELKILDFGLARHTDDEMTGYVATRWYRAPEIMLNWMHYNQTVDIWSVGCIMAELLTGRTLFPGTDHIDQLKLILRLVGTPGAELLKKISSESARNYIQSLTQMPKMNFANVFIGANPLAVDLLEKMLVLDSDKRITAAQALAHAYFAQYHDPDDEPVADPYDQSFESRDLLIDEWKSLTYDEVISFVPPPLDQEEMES
Procedure, shortened: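 In vitro phosphorylation of ATF2 at Thr69 by recombinant human GST-p38 MAP kinase, read by anti-phospho-ATF2 ELISA at 450 nm. Enzyme and compound pre-incubated 15 min at RT, then 30 min reaction at 37 °C with 40 μM ATP and 1.25 μM ATF2; buffer with or without 1% HSA (Method II or I).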

Row | Structure (SMILES) | IC50 [1] | IC50 (p38α) | inhibition at 10 µM (p38α)
1 | Cc1cc(C(=O)Nc2ccc(OCCN3CCOCC3)c3ccccc23)cc(N2CCCC2C)n1 (centres unmarked) [Compound B155, 2-Methyl-6-(2-methyl-pyrrolidin-yl)-N-[4-(2-morpholin-4-yl-ethoxy)-naphthalen-1-yl]-isonicotinamide] | 2.45 µM | 0.745 µM | 89%
2 | CN(CCO)c1nccc(Oc2ccc(NC(=O)c3cc(F)cc(N4CCCCC4)c3)c3ccccc23)n1 [Compound B373] | 0.674 µM | 0.0209 µM | –
3 | CC1CCCCN1c1cc(F)cc(C(=O)Nc2ccc(OCCN3CCOCC3)c3ccccc23)c1 (centres unmarked) [Compound B201, 3-Fluoro-5-(2-methylpiperidin-1-yl)-N-[4-(2-morpholin-4-ylethoxy)-1-naphthyl]benzamide] | 4.73 µM | 0.323 µM | –
4 | O=C(Nc1ccc(Oc2ccnc(NC3CCCC3)n2)c2ccccc12)c1cc(F)cc(N2CCOCC2)c1 [Compound B250, N-(4-{[2-(Cyclopentylamino)pyrimidin-4-yl]oxy}-1-naphthyl)-3-fluoro-5-morpholin-4-ylbenzamide] | 0.042 µM | 0.0305 µM | –
5 | O=C(Nc1ccc(OCCN2CCOCC2)c2ccccc12)c1ccc2c(c1)OCCCO2 [Compound B62] | > 10 µM | > 10 µM | –
6 | O=C(Nc1ccc(OCCN2CCOCC2)c2ccccc12)c1cccc(-c2ccccc2F)c1 [Compound B278, 2′-Fluoro-biphenyl-3-carboxylic acid [4-(2-morpholin-4-yl-ethoxy)-naphthalen-1-yl]-amide] | 3.69 µM | 0.935 µM | –
7 | O=C(Nc1ccc(OCCN2CCCCC2)c2ccccc12)c1ccc(CN2CCOCC2)cc1 [Compound B2] | > 10 µM | > 10 µM | –
8 | CCOc1cccc(-c2cccc(C(=O)Nc3ccc(OCCN4CCOCC4)c4ccccc34)c2)c1 [Compound B286] | > 10 µM | > 10 µM | –
9 | CC(C)(C)OC(=O)Nc1cccc(C(=O)Nc2ccc(OCCN3CCOCC3)c3ccccc23)c1 [Compound B63] | > 10 µM | > 10 µM | –
10 | O=C(Nc1ccc(OCCN2CCSCC2)c2ccccc12)c1ccc(CN2CCOCC2)cc1 [Compound B4] | > 10 µM | > 100 µM | –
11 | O=C(Nc1ccc(Oc2ccnc(N3CCC(F)(F)CC3)n2)c2ccccc12)c1cc(F)cc(N2CCOCC2)c1 [Compound B361] | 0.475 µM | 0.0555 µM | –
12 | O=C(Nc1ccc(OCCN2CCOCC2)c2ccccc12)c1ccc(N2CCOCC2)nc1 [Compound B30] | > 10 µM | > 10 µM | –
13 | CC1CCN(c2cc(C(=O)Nc3ccc(OCCN4CCOCC4)c4ccccc34)ccn2)CC1 [Compound B128, 4-Methyl-3,4,5,6-tetrahydro-2 H-[1,2′]bipyridinyl-4′-carboxylic acid [4-(2-morpholin-4-yl-ethoxy)-naphthalen-1-yl]-amide] | 8.71 µM | 1.15 µM | 82%
14 | CN(C)c1cccc(C(=O)Nc2ccc(OCCN3CCOCC3)c3ccccc23)c1 [Compound B33] | > 10 µM | 29.8 µM | –
15 | CC1CCCN(c2cc(C(=O)Nc3ccc(OCCN4CCOCC4)c4ccccc34)ccn2)C1 (centres unmarked) [Compound B126, 3-Methyl-3,4,5,6-tetrahydro-2 H-[1,2′]bipyridinyl-4′-carboxylic acid [4-(2-morpholin-4-yl-ethoxy)-naphthalen-1-yl]-amide] | 0.934 µM | 0.451 µM | 85%
16 | CCN(C)c1cc(C(=O)Nc2ccc(OCCN3CCOCC3)c3ccccc23)ccn1 [Compound B133, 2-(Ethyl-methyl-amino)-N-[4-(2-morpholin-4-yl-ethoxy)-naphthalen-1-yl]-isonicotinamide] | 8.5 µM | 7.68 µM | 52%
17 | Cc1cc(F)ccc1-c1cccc(C(=O)Nc2ccc(OCCN3CCOCC3)c3ccccc23)c1 [Compound B245] | 1.14 µM | 0.631 µM | –
18 | CC(C)(C)C1CCC(Oc2cc(F)cc(C(=O)Nc3ccc(OCc4ccncc4)c4ccccc34)c2)CC1 (centres unmarked) [Compound B236] | > 10 µM | > 10 µM | –
19 | Cc1cccc(-c2cccc(C(=O)Nc3ccc(OCCN4CCOCC4)c4ccccc34)c2)c1 [Compound B104] | 4.44 µM | 0.965 µM | 66%
20 | COc1cccc(-c2cccc(C(=O)Nc3ccc(OCCN4CCOCC4)c4ccccc34)c2)c1OC [Compound B292] | > 10 µM | > 10 µM | –

The remaining lines, values ahead:

Row | IC50 [1] | IC50 (p38α) | inhibition at 10 µM (p38α) | Structure (SMILES)
21 | > 10 µM | > 10 µM | – | O=C(Nc1ccc(OCCN2CCOCC2)c2ccccc12)c1cc(F)cc(F)c1 [Compound B204]
22 | > 10 µM | > 10 µM | – | O=C(Nc1ccc(OCCN2CCOCC2)c2ccccc12)c1ccc(N2CCOCC2)cc1 [Compound B29]
23 | 0.201 µM | 0.006 µM | – | CC(C)Nc1nccc(Oc2ccc(NC(=O)c3cc(F)cc(N4CCCCC4)c3)c3ccccc23)n1 [Compound B396, 3-Fluoro-N-(4-{[2-(isopropylamino)pyrimidin-4-yl]oxy}-1-naphthyl)-5-piperidin-1-ylbenzamide]
24 | > 10 µM | 3.19 µM | – | CC(=O)N1CCN(c2ccc(NC(=O)c3cc(F)cc(N4CCC(C)CC4)c3)c3ccccc23)CC1 [Compound B196]
25 | 0.063 µM | 0.0225 µM | – | CCN1CCC[C@H]1CNc1nccc(Oc2ccc(NC(=O)c3cc(F)cc(N4CCOCC4)c3)c3ccccc23)n1 [Compound B360]
26 | > 10 µM | 10.3 µM | – | Cc1cc(Cl)ccc1-c1cccc(C(=O)Nc2ccc(OCCN3CCOCC3)c3ccccc23)c1 [Compound B293]
27 | 2.72 µM | > 10 µM | – | O=C(Nc1ccc(OCCN2CCOCC2)c2ccccc12)c1ccnc(N2CCC(O)CC2)c1 [Compound B43, 4-Hydroxy-3,4,5,6-tetrahydro-2 H-[1,2′]bipyridinyl-4′-carboxylic acid [4-(2-morpholin-4-yl-ethoxy)-naphthalen-1-yl]-amide]
28 | > 10 µM | 7.49 µM | – | CC(=O)Nc1cccc(C(=O)Nc2ccc(OCCN3CCOCC3)c3ccccc23)c1 [Compound B32]
29 | 1.84 µM | 0.777 µM | – | O=C(Nc1ccc(OCCN2CCOCC2)c2ccccc12)c1cccc(-c2ccc(F)cc2)c1 [Compound B277]
30 | > 1 µM | 6.34 µM | – | O=C(Nc1ccc(OCCN2CCOCC2)c2ccccc12)c1cc(N2CCOCC2)nc(Cl)n1 [Compound B42, 2-Chloro-6-morpholin-4-yl-pyrimidine-4-carboxylic acid [4-(2-morpholin-4-yl-ethoxy)-naphthalen-1-yl]-amide]
31 | 2.03 µM | 0.451 µM | 88% | O=C(Nc1ccc(OCCN2CCOCC2)c2ccccc12)c1cccc(-c2ccccc2)c1 [Compound B84, Biphenyl-3-carboxylic acid [4-(2-morpholin-4-yl-ethoxy)-naphthalen-1-yl]-amide]
32 | 6.14 µM | 9.19 µM | – | CCc1ccccc1-c1cccc(C(=O)Nc2ccc(OCCN3CCOCC3)c3ccccc23)c1 [Compound B291]
33 | 0.136 µM | 0.0127 µM | – | O=C(Nc1ccc(Oc2ccnc(NC3(CO)CCCC3)n2)c2ccccc12)c1cc(F)cc(N2CCCCC2)c1 [Compound B399, 3-Fluoro-N-{4-[(2-{[1-(hydroxymethyl)cyclopentyl]amino}pyrimidin-4-yl)oxy]-1-naphthyl}-5-piperidin-1-ylbenzamide]
34 | 2.48 µM | 1.41 µM | – | O=C(Nc1ccc(OCCN2CCOCC2)c2ccccc12)c1cc(Cl)nc(N2CCOCC2)c1 [Compound B305]
